As a reminder, the IC50 is the point on the concentration scale where inhibition reaches its midpoint.

PD-L1 His protein / PD-1 Fc protein, sequence (Q9NZQ7 19-238 limits assumed): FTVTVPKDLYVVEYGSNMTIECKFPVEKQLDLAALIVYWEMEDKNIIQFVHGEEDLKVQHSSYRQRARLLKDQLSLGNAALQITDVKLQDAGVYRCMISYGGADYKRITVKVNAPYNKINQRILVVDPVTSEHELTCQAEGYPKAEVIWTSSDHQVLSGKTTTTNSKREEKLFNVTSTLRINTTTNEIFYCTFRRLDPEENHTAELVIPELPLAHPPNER

This test addresses PD-L1 His protein / PD-1 Fc protein (Homo sapiens, UniProt Q9NZQ7). The test can be described thus: HTRF Assay (PD-1/PD-L1 interaction). The format is binding. Conditions: PD-L1 His 6 nM, PD-1 Fc 6 nM. The method in brief:
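Compounds tested from 20 μM down to 0.001 μM (3-fold) against 6 nM PD-L1 His and 6 nM PD-1 Fc, 15 min room temperature incubation. Detection after 1 h at room temperature with Tb cryptate anti-6HIS and XL665 anti-human IgG reagents (mixture at 0.35 nM and 6.7 nM), HTRF signal.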
A general note: Time-resolved FRET reads energy transfer from a long-lived donor to a nearby acceptor.
As for `COc1nc(-c2cccc(-c3cccc(-c4cc5c(=O)n(C)c(CN[C@H]6C[C@](C)(O)C6)nn5c4)c3Cl)c2Cl)ccc1CNC[C@@H]1CCC(=O)N1` [Example 332, 6-(2,2′-Dichloro-3′-(6-methoxy-5-(((((S)-5-oxopyrrolidin-2-yl)methyl)amino)methyl)pyridin-2-yl)-[1,1′-biphenyl]-3-yl)-2-((((1r,3r)-3-hydroxy-3-methylcyclobutyl)amino)methyl)-3-methylpyrrolo[2,1-f][1,2,4]triazin-4(3H)-one], the IC50 was determined as 500 nM.
Molecule `COc1nc(-c2cccc(-c3cccc(-c4nnc5n4CCNC5)c3Cl)c2Cl)ccc1CNC[C@@H]1CCC(=O)N1` [Example 240, (S)-5-((((6-(2,2′-Dichloro-3′-(5,6,7,8-tetrahydro-[1,2,4]triazolo[4,3-a]pyrazin-3-yl)-[1,1′-biphenyl]-3-yl)-2-methoxypyridin-3-yl)methyl)amino)methyl)pyrrolidin-2-one] came in with a half-inhibitory concentration (IC50) of 350 nM.
In the case of `Cc1c(COc2cc(OCc3cncc(C#N)c3)c(CN[C@@](C)(CO)C(=O)O)cc2Cl)cccc1-c1cccc(-c2ccn3c(=O)c(CN[C@@](C)(CO)C(=O)O)cnc3c2)c1C` [Example 7, (S)-2-(((8-(3′-((4-((((S)-2-Carboxy-1-hydroxypropan-2-yl)amino)methyl)-2-chloro-5-((5-cyanopyridin-3-yl)methoxy)phenoxy)methyl)-2,2′-dimethyl-[1,1′-biphenyl]-3-yl)-4-oxo-4H-pyrido[1,2-a]pyrimidin-3-yl)methyl)amino)-3-hydroxy-2-methylpropanoic acid] it was 0.2 nM; in that of `COc1nc(-c2cccc(-c3cccc(-c4cnc5cc(CNC[C@@H]6CCC(=O)N6)ccc5c4)c3Cl)c2Cl)ccc1CNC[C@@H]1CCC(=O)N1` [Example 370, (5S)-5-[[[3-[2-Chloro-3-[2-chloro-3-[6-methoxy-5-[[[(2S)-5-oxopyrrolidin-2-yl]methylamino]methyl]-2-pyridyl]phenyl]phenyl]-7-quinolyl]methylamino]methyl]pyrrolidin-2-one], 580 nM.
Molecule `CNC(=O)CCNCc1cnc2cc(-c3cccc(-c4cccc(-c5ccc(CNC[C@@H]6CCC(=O)N6)c(OC)n5)c4Cl)c3Cl)ccn2c1=O` [Example 210, (S)-3-(((8-(2,2′-dichloro-3′-(6-methoxy-5-((((5-oxopyrrolidin-2-yl)methyl)amino)methyl)pyridin-2-yl)-[1,1′-biphenyl]-3-yl)-4-oxo-4H-pyrido[1,2-a]pyrimidin-3-yl)methyl)amino)-N-methylpropanamide] yielded a 50% inhibitory concentration (IC50) of 0.1 nM.
The same measure for `COc1nc(-c2cccc(-c3cccc(-c4ccn5c(=O)c(CNC[C@@H]6CCC(=O)N6)ccc5c4)c3C)c2Cl)cnc1CNC[C@@H]1CCC(=O)N1` [Example 49, 8-(2′-Chloro-3′-(6-methoxy-5-(((((S)-5-oxopyrrolidin-2-yl)methyl)amino)methyl)pyrazin-2-yl)-2-methyl-[1,1′-biphenyl]-3-yl)-3-(((((S)-5-oxopyrrolidin-2-yl)methyl)amino)methyl)-4H-quinolizin-4-one]: 6.3 nM; for `COc1nc(-c2cccc(-c3cccc(-c4ccn5c(=O)c(CNC[C@H](C)O)c(OC)nc5c4)c3Cl)c2Cl)ccc1CNC[C@@H]1CCC(=O)N1` [Example 262]: 6.1 nM.
In the case of `COc1nc(-c2cccc(-c3cccc(-c4cc5c(=O)n(C)c(CNC67CC(O)(C6)C7)nn5c4)c3Cl)c2Cl)ccc1CNC[C@@H]1CCC(=O)N1` [Example 473, (S)-6-(2,2′-Dichloro-3′-(6-methoxy-5-((((5-oxopyrrolidin-2-yl)methyl)amino)methyl)pyridin-2-yl)-[1,1′-biphenyl]-3-yl)-2-(((3-hydroxybicyclo[1.1.1]pentan-1-yl)amino)methyl)-3-methylpyrrolo[2,1-f][1,2,4]triazin-4(3H)-one] it was 5.3 nM; in that of `COc1nc(-c2cccc(-c3cccc(-c4cc(=O)n5cc(CNC[C@@H]6CCC(=O)N6)ccc5n4)c3Cl)c2Cl)cnc1CNC[C@@H]1CCC(=O)N1` [Example 58, 2-(2,2′-Dichloro-3′-(6-methoxy-5-(((((S)-5-oxopyrrolidin-2-yl)methyl)amino)methyl)pyrazin-2-yl)-[1,1′-biphenyl]-3-yl)-7-(((((S)-5-oxopyrrolidin-2-yl)methyl)amino)methyl)-4H-pyrido[1,2-a]pyrimidin-4-one], 2.2 nM.
The same measure for `COc1nc(-c2cccc(-c3cccc(-c4ccc5nc(CNC[C@@H]6CCC(=O)N6)cn5c4)c3Cl)c2Cl)ccc1CNC[C@@H]1CCC(=O)N1` [Example 356, (5S)-5-[[[6-[2-Chloro-3-[2-chloro-3-[2-[[[(2S)-5-oxopyrrolidin-2-yl]methylamino]methyl]imidazo[1,2-a]pyridin-6-yl]phenyl]phenyl]-2-methoxy-3-pyridyl]methylamino]methyl]pyrrolidin-2-one]: 86 nM; for `COc1nc(-c2cccc(-c3cccc(-c4ccc5c(n4)nc(CN[C@H]4C[C@H](O)C4)n5C)c3Cl)c2Cl)ccc1CN[C@H]1C[C@H](O)C1` [Example 313, (1r,3r)-3-(((6-(2,2′-Dichloro-3′-(2-((((1r,3r)-3-hydroxycyclobutyl)amino)methyl)-1-methyl-1H-imidazo[4,5-b]pyridin-5-yl)-[1,1′-biphenyl]-3-yl)-2-methoxypyridin-3-yl)methyl)amino)cyclobutan-1-ol]: 1.9 nM.
The molecule `COc1nc(-c2cccc(-c3cccc(-c4ccn5c(=O)c(CNC[C@@H]6CCC(=O)N6)cnc5c4)c3C)c2C)ccc1CNC[C@@H]1CCC(=O)N1` [Example 31, 8-(3′-(6-Methoxy-5-(((((S)-5-oxopyrrolidin-2-yl)methyl)amino)methyl)pyridin-2-yl)-2,2′-dimethyl-[1,1′-biphenyl]-3-yl)-3-(((((S)-5-oxopyrrolidin-2-yl)methyl)amino)methyl)-4H-pyrido[1,2-a]pyrimidin-4-one] yielded an IC50 of 2.3 nM.
The same measure for `COc1nc(-c2cccc(-c3cccc(-c4ncc5c(n4)CCN(C[C@@H]4CCC(=O)N4)C5)c3Cl)c2Cl)ccc1CNC[C@@H]1CCC(=O)N1` [Example 443, (S)-5-((((6-(2,2′-Dichloro-3′-(6-(((S)-5-oxopyrrolidin-2-yl)methyl)-5,6,7,8-tetrahydropyrido[4,3-d]pyrimidin-2-yl)-[1,1′-biphenyl]-3-yl)-2-methoxypyridin-3-yl)methyl)amino)methyl)pyrrolidin-2-one]: 0.1 nM; for `COc1nc(-c2cccc(-c3cccc(-c4ncc5c(CNC[C@@H]6CCC(=O)N6)cn(C)c5n4)c3Cl)c2Cl)ccc1CNC[C@@H]1CCC(=O)N1` [Example 401, (S)-5-((((2-(2,2′-Dichloro-3′-(6-methoxy-5-(((((S)-5-oxopyrrolidin-2-yl)methyl)amino)methyl)pyridin-2-yl)-[1,1′-biphenyl]-3-yl)-7-methyl-7H-pyrrolo[2,3-d]pyrimidin-5-yl)methyl)amino)methyl)pyrrolidin-2-one]: 0.1 nM.
The same measure for `COc1nc(-c2cccc(-c3cccc(-c4ccn5c(=O)c(CN6CCC[C@@]6(C)C(=O)O)cnc5c4)c3Cl)c2Cl)ccc1CNCCO` [Example 168, (S)-1-((8-(2,2′-Dichloro-3′-(5-(((2-hydroxyethyl)amino)methyl)-6-methoxypyridin-2-yl)-[1,1′-biphenyl]-3-yl)-4-oxo-4H-pyrido[1,2-a]pyrimidin-3-yl)methyl)-2-methylpyrrolidine-2-carboxylic acid]: 0.2 nM; for `CNC(=O)C1CN(Cc2cnc3cc(-c4cccc(-c5cccc(-c6ccc(CNC[C@@H]7CCC(=O)N7)c(OC)n6)c5Cl)c4Cl)ccn3c2=O)C1` [Example 255, (S)-1-((8-(2,2′-Dichloro-3′-(6-methoxy-5-((((5-oxopyrrolidin-2-yl)methyl)amino)methyl)pyridin-2-yl)-[1,1′-biphenyl]-3-yl)-4-oxo-4H-pyrido[1,2-a]pyrimidin-3-yl)methyl)-N-methylazetidine-3-carboxamide]: 0.1 nM.
In the case of `COc1nc(-c2cccc(-c3cccc(-c4cc5c(=O)n(C)c(CNCC(C)(C)F)nn5c4)c3Cl)c2Cl)ccc1CNC[C@@H]1CCC(=O)N1` [Example 462, (S)-6-(2,2′-Dichloro-3′-(6-methoxy-5-((((5-oxopyrrolidin-2-yl)methyl)amino)methyl)pyridin-2-yl)-[1,1′-biphenyl]-3-yl)-2-(((2-fluoro-2-methylpropyl)amino)methyl)-3-methylpyrrolo[2,1-f][1,2,4]triazin-4(3H)-one] it was 58 nM.
In turn, `COc1nc(-c2cccc(-c3cccc(-c4ccn5c(=O)c(CNC[C@H](C)O)cnc5c4)c3Cl)c2Cl)ccc1CNC[C@@H]1CCC(=O)N1` [Example 131, 8-(2,2′-dichloro-3′-(6-methoxy-5-(((((S)-5-oxopyrrolidin-2-yl)methyl)amino)methyl)pyridin-2-yl)-[1,1′-biphenyl]-3-yl)-3-((((S)-2-hydroxypropyl)amino)methyl)-4H-pyrido[1,2-a]pyrimidin-4-one] displayed a half-inhibitory concentration (IC50) of 1.7 nM.
The molecule `COc1nc(-c2cccc(-c3cccc(-c4ccn5c(=O)c(CN6CC[C@H](O)C6)cnc5c4)c3Cl)c2Cl)ccc1CNC[C@@H]1CCC(=O)N1` [Example 144, 8-(2,2′-Dichloro-3′-(6-methoxy-5-(((((S)-5-oxopyrrolidin-2-yl)methyl)amino)methyl)pyridin-2-yl)-[1,1′-biphenyl]-3-yl)-3-(((S)-3-hydroxypyrrolidin-1-yl)methyl)-4H-pyrido[1,2-a]pyrimidin-4-one] yielded an IC50 of 3.1 nM. This IC50 lies about 1.8-fold higher than the previous one.
In the case of `COc1nc(-c2cccc(-c3cccc(-c4ccc5c(OC)c(CNC[C@H](C)O)cc(Cl)c5n4)c3Cl)c2Cl)ccc1CNC[C@@H]1CCC(=O)N1` [Example 367, (S)-5-((((6-(2,2′-Dichloro-3′-(8-chloro-6-((((S)-2-hydroxypropyl)amino)methyl)-5-methoxyquinolin-2-yl)-[1,1′-biphenyl]-3-yl)-2-methoxypyridin-3-yl)methyl)amino)methyl)pyrrolidin-2-one] it was 21 nM.

For the origin of these results see US20230143612A1 (Arbutus Biopharma Corporation, priority 2020, published 2023).
